According to paper PMC8018653, “Gender-based differences in brain and plasma pharmacokinetics of letrozole in sprague-dawley rats: Application of physiologically-based pharmacokinetic modeling to gain quantitative insights” (PLoS ONE, 2021):
“And” between values parts separate entries of the source, which are not always exact repeats. Equal entries are not always repeated. Where two headings read alike, the source gives them in different places.

Experiment: Single dose brain ECF pharmacokinetics by intracerebral microdialysis
Assay type: in vivo, Sprague-Dawley rats
Conditions: single dose 4 mg/kg i.p.; for Tmax / AUC(0-t) / Kp uu: Sprague-Dawley, rat, ip; for Tmax / AUC(0-t): brain ECF (striatal microdialysate); for AUC(0-t): read-out: AUC 0–12, brain ECF; for Cmax, brain ECF / Kp uu: 4 mg/kg; for Kp uu: brain ECF / unbound plasma
Protocol: Within 10 minutes of collection, plasma was separated by centrifugation of the blood samples at 4,000 rpm for 15 min. Microdialysis samples were collected simultaneously through the probes at the same time points from 0–12 hours.

Tmax (female rats): 6.9 h
AUC(0-t) (female rats): 5.75 µg·h/mL
Tmax (male rats): 4.7 h
AUC(0-t) (male rats): 2.41 µg·h/mL
Kp uu (female, female rats, read-out: Kpuu (AUC0-12 brain ECF / plasma unbound)): 1.3
Kp uu (female, female rats, read-out: Kpuu (Cmax brain ECF / plasma unbound)): 1.4
Kp uu (male, male rats, read-out: Kpuu (AUC0-12 brain ECF / plasma unbound)): 0.6
Kp uu (male, male rats, read-out: Kpuu (Cmax brain ECF / plasma unbound)): 0.6
brain ECF AUC0-12, female versus male difference: 2.4 fold
brain ECF Cmax, female versus male difference: 2.5 fold
Compound: N#Cc1ccc(C(c2ccc(C#N)cc2)n2cncn2)cc1 [letrozole]
Cmax, brain ECF (female rats): 660 ± 260 ng/ml and 660 (260)* ng/ml and 660 ng/ml
Cmax, brain ECF (male rats): 260 ± 80 ng/ml and 260 (80) ng/ml and 260 ng/ml
